# Where “and” joins values, the source holds several entries; their conditions need not be identical. Equal entries are not always repeated.
# System: rumen fluid
# Test: Methane and volatile fatty acid production by buffered rumen fluid incubated with hay barley mix (Example 1)
# Assay type: cell-based, cow
# Conditions: 500 μg/ml; 16 hours, 39° C.
# Protocol: Thirty ml of a 33% buffered solution of rumen fluid withdrawn from a rumen canulated cow was incubated with 0.3 g of a 50:50 hay barley mix at 39° C. under anaerobic conditions.
# (§1) After 16 hours the volume of gas produced and the percentage of methane in the headspace was measured and the resultant fermentation fluid was analysed for volatile fatty acids by HPLC.
# Sandalwood oil, and control oils of commercial essential oil mixes or pure oils of eugenol or cinnamaldehyde were added in the amount of 500 μg/ml to the 30 ml buffered solution of rumen fluid prior to incubation. Sandalwood oil was obtained from Cardiff University and Sigma [SAFC (e.g. W30,050-0 lot no. 03722CC-396) and Sandalwood oil manufactured by Fluka (355263/1 lot no. 52706264).]
Structure (SMILES),Acetate formation,Butyrate formation,Methane formation,Propionate formation,Total volatile fatty acids formation
C=CCc1ccc(O)c(OC)c1 [Eugenol],2817 μmole/g of feed,73 μmole/g of feed,1436 μmole/g of feed,590 μmole/g of feed,3479 μmole/g of feed
O=CC=Cc1ccccc1 [Cinnamaldehyde],2832 μmole/g of feed,73 μmole/g of feed,1471 μmole/g of feed,492 μmole/g of feed,3398 μmole/g of feed
CC(C)=CCCC(C)=CC=O [Citral],2754 μmole/g of feed,72 μmole/g of feed,1461 μmole/g of feed,534 μmole/g of feed,3361 μmole/g of feed

# System: rumen fluid
# Test: Methane production by buffered rumen fluid, sandalwood oil and synthetic replacements (Example 4)
# Assay type: cell-based, cow
# Conditions: 5, 50 or 100 or 500 pg/ml; 16 hours
# Protocol: Thirty ml of a 33% buffered solution of rumen fluid withdrawn from a rumen canulated cow was incubated with 0.3 g of a 50:50 hay barley mix at 39° C. under anaerobic conditions
# as §1
# Sandalwood oil from either Fluka or SAFC and two different batches of Javanol (Givaudan) or a single batch of Santaliff (International Flavors & Fragrances) (both Javanol and Santaliff are artifical Sandalwood replacements) were added in the amount of 5, 50 or 100 or 500 pg/ml to the 30 ml buffered solution of rumen fluid prior to incubation.
row,Structure (SMILES),methane compared to the control experiments
1,"CC(=CCC1CC=C(C)C1(C)C)CO (stereo not drawn) [Santaliff, 2-Methyl-4-(2,2,3-trimethyl-3-cyclopenten-1-yl)-2-buten-1-ol]",significantly decreased

# System: not listed separately
# Test: Further sandalwood analogues: volatile fatty acid and methane production (Example 7, Table 14)
# Assay type: cell-based
# Conditions: 5 μg/ml
# Protocol: (§2) Further testing of sandalwood analogues was conducted following the protocols described in Examples 3 and 5.
Structure (SMILES),Acetate,Butyrate,Methane,Propionate,TVFA
"CC1C2CC(CC2C2CCC(O)CC2)C1(C)C (stereo not drawn) [Sandela, 4-(5,5,6-Trimethylbicyclo[2.2.1]hept-2-yl)cyclohexan-1-ol]",2223 μmol/g of feed added,482 μmol/g of feed added,996 μmol/g of feed added,465 μmol/g of feed added,3169 μmol/g of feed added
"CC1=CCC(C=CC(C)C(C)O)C1(C)C (stereo not drawn) [Ebanol, 3-Methyl-5-(2,2,3-trimethyl-3-cyclopenten-1-yl)-4-penten-2-ol]",2136 μmol/g of feed added,488 μmol/g of feed added,952 μmol/g of feed added,427 μmol/g of feed added,3051 μmol/g of feed added
"CC(=CCC1CC=C(C)C1(C)C)CO (stereo not drawn) [Santaliff, 2-Methyl-4-(2,2,3-trimethyl-3-cyclopenten-1-yl)-2-buten-1-ol]",2174 μmol/g of feed added,458 μmol/g of feed added,1031 μmol/g of feed added,466 μmol/g of feed added,3098 μmol/g of feed added
"CC1=CCC(CCC(C)C(C)O)C1(C)C (stereo not drawn) [Sandalore, 5-(2,2,3-Trimethyl-3-cyclopentenhyl)-3-methylpentan-2-ol]",2118 μmol/g of feed added,487 μmol/g of feed added,951 μmol/g of feed added,431 μmol/g of feed added,3036 μmol/g of feed added
"CCC(=CCC1CC=C(C)C1(C)C)CO (stereo not drawn) [Sanjinol, 2-ethyl-4(2,2,3-trimethyl-3-cyclopentenyl)-2-buten-1-ol]",1978 μmol/g of feed added,448 μmol/g of feed added,1107 μmol/g of feed added,426 μmol/g of feed added,2852 μmol/g of feed added
"CCC(=CCC1CC=C(C)C1(C)C)CO (stereo not drawn) [Bacdanol, 2-ethyl-4-(2,2,3-trimethyl-3-cyclopenten-1-yl)-2-buten-1-ol]",2037 μmol/g of feed added,438 μmol/g of feed added,934 μmol/g of feed added,444 μmol/g of feed added,2919 μmol/g of feed added

# Same assay, conditions: 50 μg/ml
Structure (SMILES),Acetate,Butyrate,Methane,Propionate,TVFA
"CC1C2CC(CC2C2CCC(O)CC2)C1(C)C (stereo not drawn) [Sandela, 4-(5,5,6-Trimethylbicyclo[2.2.1]hept-2-yl)cyclohexan-1-ol]",2235 μmol/g of feed added,513 μmol/g of feed added,1052 μmol/g of feed added,450 μmol/g of feed added,3198 μmol/g of feed added
"CC1=CCC(C=CC(C)C(C)O)C1(C)C (stereo not drawn) [Ebanol, 3-Methyl-5-(2,2,3-trimethyl-3-cyclopenten-1-yl)-4-penten-2-ol]",2129 μmol/g of feed added,474 μmol/g of feed added,934 μmol/g of feed added,436 μmol/g of feed added,3039 μmol/g of feed added
"CC(=CCC1CC=C(C)C1(C)C)CO (stereo not drawn) [Santaliff, 2-Methyl-4-(2,2,3-trimethyl-3-cyclopenten-1-yl)-2-buten-1-ol]",2142 μmol/g of feed added,490 μmol/g of feed added,1052 μmol/g of feed added,442 μmol/g of feed added,3074 μmol/g of feed added
"CC1=CCC(CCC(C)C(C)O)C1(C)C (stereo not drawn) [Sandalore, 5-(2,2,3-Trimethyl-3-cyclopentenhyl)-3-methylpentan-2-ol]",1972 μmol/g of feed added,453 μmol/g of feed added,1086 μmol/g of feed added,409 μmol/g of feed added,2834 μmol/g of feed added
"CCC(=CCC1CC=C(C)C1(C)C)CO (stereo not drawn) [Sanjinol, 2-ethyl-4(2,2,3-trimethyl-3-cyclopentenyl)-2-buten-1-ol]",2192 μmol/g of feed added,466 μmol/g of feed added,835 μmol/g of feed added,579 μmol/g of feed added,3237 μmol/g of feed added
"CCC(=CCC1CC=C(C)C1(C)C)CO (stereo not drawn) [Bacdanol, 2-ethyl-4-(2,2,3-trimethyl-3-cyclopenten-1-yl)-2-buten-1-ol]",2049 μmol/g of feed added,458 μmol/g of feed added,1047 μmol/g of feed added,434 μmol/g of feed added,2942 μmol/g of feed added

# Same assay, conditions: 100 μg/ml
Structure (SMILES),Acetate,Butyrate,Methane,Propionate,TVFA
"CC1C2CC(CC2C2CCC(O)CC2)C1(C)C (stereo not drawn) [Sandela, 4-(5,5,6-Trimethylbicyclo[2.2.1]hept-2-yl)cyclohexan-1-ol]",2297 μmol/g of feed added,515 μmol/g of feed added,1078 μmol/g of feed added,477 μmol/g of feed added,3289 μmol/g of feed added
"CC1=CCC(C=CC(C)C(C)O)C1(C)C (stereo not drawn) [Ebanol, 3-Methyl-5-(2,2,3-trimethyl-3-cyclopenten-1-yl)-4-penten-2-ol]",2430 μmol/g of feed added,458 μmol/g of feed added,833 μmol/g of feed added,533 μmol/g of feed added,3421 μmol/g of feed added
"CC(=CCC1CC=C(C)C1(C)C)CO (stereo not drawn) [Santaliff, 2-Methyl-4-(2,2,3-trimethyl-3-cyclopenten-1-yl)-2-buten-1-ol]",2301 μmol/g of feed added,462 μmol/g of feed added,844 μmol/g of feed added,543 μmol/g of feed added,3305 μmol/g of feed added
"CC1=CCC(CCC(C)C(C)O)C1(C)C (stereo not drawn) [Sandalore, 5-(2,2,3-Trimethyl-3-cyclopentenhyl)-3-methylpentan-2-ol]",2119 μmol/g of feed added,432 μmol/g of feed added,1174 μmol/g of feed added,471 μmol/g of feed added,3023 μmol/g of feed added
"CCC(=CCC1CC=C(C)C1(C)C)CO (stereo not drawn) [Sanjinol, 2-ethyl-4(2,2,3-trimethyl-3-cyclopentenyl)-2-buten-1-ol]",2359 μmol/g of feed added,512 μmol/g of feed added,795 μmol/g of feed added,697 μmol/g of feed added,3568 μmol/g of feed added
"CCC(=CCC1CC=C(C)C1(C)C)CO (stereo not drawn) [Bacdanol, 2-ethyl-4-(2,2,3-trimethyl-3-cyclopenten-1-yl)-2-buten-1-ol]",2419 μmol/g of feed added,514 μmol/g of feed added,995 μmol/g of feed added,515 μmol/g of feed added,3448 μmol/g of feed added

# Same assay, conditions: 500 μg/ml
Structure (SMILES),Acetate,Butyrate,Methane,Propionate,TVFA
"CC1C2CC(CC2C2CCC(O)CC2)C1(C)C (stereo not drawn) [Sandela, 4-(5,5,6-Trimethylbicyclo[2.2.1]hept-2-yl)cyclohexan-1-ol]",2270 μmol/g of feed added,317 μmol/g of feed added,928 μmol/g of feed added,680 μmol/g of feed added,3267 μmol/g of feed added
"CC1=CCC(C=CC(C)C(C)O)C1(C)C (stereo not drawn) [Ebanol, 3-Methyl-5-(2,2,3-trimethyl-3-cyclopenten-1-yl)-4-penten-2-ol]",2333 μmol/g of feed added,332 μmol/g of feed added,683 μmol/g of feed added,939 μmol/g of feed added,3604 μmol/g of feed added
"CC(=CCC1CC=C(C)C1(C)C)CO (stereo not drawn) [Santaliff, 2-Methyl-4-(2,2,3-trimethyl-3-cyclopenten-1-yl)-2-buten-1-ol]",2101 μmol/g of feed added,296 μmol/g of feed added,801 μmol/g of feed added,741 μmol/g of feed added,3138 μmol/g of feed added
"CC1=CCC(CCC(C)C(C)O)C1(C)C (stereo not drawn) [Sandalore, 5-(2,2,3-Trimethyl-3-cyclopentenhyl)-3-methylpentan-2-ol]",2249 μmol/g of feed added,305 μmol/g of feed added,902 μmol/g of feed added,897 μmol/g of feed added,3451 μmol/g of feed added
"CCC(=CCC1CC=C(C)C1(C)C)CO (stereo not drawn) [Sanjinol, 2-ethyl-4(2,2,3-trimethyl-3-cyclopentenyl)-2-buten-1-ol]",1849 μmol/g of feed added,225 μmol/g of feed added,741 μmol/g of feed added,744 μmol/g of feed added,2818 μmol/g of feed added
"CCC(=CCC1CC=C(C)C1(C)C)CO (stereo not drawn) [Bacdanol, 2-ethyl-4-(2,2,3-trimethyl-3-cyclopenten-1-yl)-2-buten-1-ol]",2331 μmol/g of feed added,309 μmol/g of feed added,942 μmol/g of feed added,864 μmol/g of feed added,3503 μmol/g of feed added

# System: not listed separately
# Test: Further sandalwood analogues: CH4 per bottle, compound in DMSO or ETOH (Example 7, Table 15)
# Assay type: cell-based
# Conditions: 150 ug/30 ml in 200 ul DMSO
# Protocol: as §2
row,Structure (SMILES),CH4 (mean of rep a-c)
1,"CCC(=CCC1CC=C(C)C1(C)C)CO (stereo not drawn) [Sanjinol, 2-ethyl-4(2,2,3-trimethyl-3-cyclopentenyl)-2-buten-1-ol]",938.5618 µmol/g

# Same assay, conditions: 150 ug/30 ml in 200 ul DMSO; single bottles rep a, b, c
row,Structure (SMILES),CH4
1,"CCC(=CCC1CC=C(C)C1(C)C)CO (stereo not drawn) [Sanjinol, 2-ethyl-4(2,2,3-trimethyl-3-cyclopentenyl)-2-buten-1-ol]",1107.671 µmol/g and 793.8945 µmol/g and 914.1195 µmol/g

# Same assay, conditions: 150 ug/30 ml in 200 ul ETOH
row,Structure (SMILES),CH4 (mean of rep a-c)
1,"CCC(=CCC1CC=C(C)C1(C)C)CO (stereo not drawn) [Sanjinol, 2-ethyl-4(2,2,3-trimethyl-3-cyclopentenyl)-2-buten-1-ol]",1153.269 µmol/g

# Same assay, conditions: 150 ug/30 ml in 200 ul ETOH; single bottles rep a, b, c
row,Structure (SMILES),CH4
1,"CCC(=CCC1CC=C(C)C1(C)C)CO (stereo not drawn) [Sanjinol, 2-ethyl-4(2,2,3-trimethyl-3-cyclopentenyl)-2-buten-1-ol]",1064.879 µmol/g and 1232.288 µmol/g and 1162.641 µmol/g

# Same assay, conditions: 15000 ug/30 ml in 200 ul DMSO
row,Structure (SMILES),CH4 (mean of rep a-c)
1,"CCC(=CCC1CC=C(C)C1(C)C)CO (stereo not drawn) [Sanjinol, 2-ethyl-4(2,2,3-trimethyl-3-cyclopentenyl)-2-buten-1-ol]",743.6664 µmol/g

# Same assay, conditions: 15000 ug/30 ml in 200 ul DMSO; single bottles rep a, b, c
row,Structure (SMILES),CH4
1,"CCC(=CCC1CC=C(C)C1(C)C)CO (stereo not drawn) [Sanjinol, 2-ethyl-4(2,2,3-trimethyl-3-cyclopentenyl)-2-buten-1-ol]",615.569 µmol/g and 893.1559 µmol/g and 722.2742 µmol/g

# Same assay, conditions: 15000 ug/30 ml in 200 ul ETOH
row,Structure (SMILES),CH4 (mean of rep a-c)
1,"CCC(=CCC1CC=C(C)C1(C)C)CO (stereo not drawn) [Sanjinol, 2-ethyl-4(2,2,3-trimethyl-3-cyclopentenyl)-2-buten-1-ol]",1158.419 µmol/g

# Same assay, conditions: 15000 ug/30 ml in 200 ul ETOH; single bottles rep a, b, c
row,Structure (SMILES),CH4
1,"CCC(=CCC1CC=C(C)C1(C)C)CO (stereo not drawn) [Sanjinol, 2-ethyl-4(2,2,3-trimethyl-3-cyclopentenyl)-2-buten-1-ol]",1063.899 µmol/g and 1351.649 µmol/g and 1059.708 µmol/g

# — patent US20110165277A1, “Biological Materials and Uses Thereof” (priority 2008, published 2011)
